Source: patent US12201610B2, “Compositions comprising aticaprant” (Janssen Pharmaceuticals, Inc., priority 2022, dated 2025)

Tested on: subjects with MDD
Assay: MADRS total score, adjunctive aticaprant vs placebo in MDD (Example 6)
Settings: for MADRS LSMeans difference estimate, supplementary analysis of data collected prior to 15 Mar. 2020 (COVID-19): MMRM
[1] = fITT Analysis Set, High anhedonia, Treatment Week 1
[2] = fITT Analysis Set, High anhedonia, Treatment Week 3
[3] = fITT Analysis Set, High anhedonia, Treatment Week 4
[4] = fITT Analysis Set, High anhedonia, Treatment Week 5
[5] = fITT Analysis Set, High anhedonia, Treatment Week 6
[6] = fITT Analysis Set, Low anhedonia, Treatment Week 1
[7] = fITT Analysis Set, Low anhedonia, Treatment Week 3
[8] = fITT Analysis Set, Low anhedonia, Treatment Week 4
[9] = fITT Analysis Set, Low anhedonia, Treatment Week 5
[10] = fITT Analysis Set, Low anhedonia, Treatment Week 6
[11] = fITT, Treatment Week 1, 10 mg adjunctive to SSRI/SNRI
[12] = fITT, Treatment Week 3, 10 mg adjunctive to SSRI/SNRI
[13] = fITT, Treatment Week 4, 10 mg adjunctive to SSRI/SNRI
[14] = fITT, Treatment Week 5, 10 mg adjunctive to SSRI/SNRI
[15] = fITT, Treatment Week 6, 10 mg adjunctive to SSRI/SNRI
[16] = fITT, Treatment Week 6, high anhedonia level
[17] = fITT, Treatment Week 6, low anhedonia level

In the case of `Cc1cc(C)cc(C2CCCN2Cc2ccc(Oc3ccc(C(N)=O)cc3F)cc2)c1` (stereo not shown) [aticaprant, 3-fluoro-4-4-2-(3,5-dimethylphenyl)pyrrolidin-1-yl-methylphenoxybenzamide], the “MADRS Total Score Mean Change to Placebo (SD pooled)” value (eITT, Treatment Week 6, 10 mg adjunctive to SSRI/SNRI) was −2.0 (8.49), the “MADRS total score change, difference between aticaprant and placebo” value (eITT, Treatment Week 6, high anhedonia level (SHAPS total score ≥38 at treatment baseline)) was −3.4 and the “MADRS total score observed effect size” value (eITT, Treatment Week 6, high anhedonia level (SHAPS ≥38)) was 0.38. The “MADRS total score observed effect size” value (eITT, Treatment Week 6, low anhedonia level (20≤ SHAPS <38)) was 0.11, the “MADRS total score change, difference between aticaprant and placebo” value (eITT, Treatment Week 6, low anhedonia level (20≤ baseline SHAPS total score <38)) was −0.9 and the “MADRS Total Score Effect size” value (eITT, Treatment Week 6, vs placebo, negative favors aticaprant) was 0.23. The “MADRS Total Score Effect size” value (eITT, Treatment Week 6, vs placebo, negative favors aticaprant, listed as Aticaprant) was −0.23, the “MADRS LSMeans difference estimate, supplementary analysis of data collected prior to 15 Mar. 2020 (COVID-19)” value (eITT, vs placebo) was −3.0 and the “MADRS Total Score Effect size” value [1] was −0.45. For the same compound, the “MADRS Total Score Mean Change from Baseline (SD)” value [1] was −4.4 (5.04), the “MADRS Total Score Mean Change to Placebo (SD pooled)” value [1] was −2.0 (4.38) and the “MADRS Total Score Effect size” value [2] was −0.54. The “MADRS Total Score Mean Change from Baseline (SD)” value [2] was −6.9 (6.66), the “MADRS Total Score Mean Change to Placebo (SD pooled)” value [2] was −3.8 (6.94) and the “MADRS Total Score Effect size” value [3] was −0.50. The “MADRS Total Score Mean Change from Baseline (SD)” value [3] was −8.6 (7.32), the “MADRS Total Score Mean Change to Placebo (SD pooled)” value [3] was −3.8 (7.56) and the “MADRS Total Score Effect size” value [4] was −0.51. For the same compound, the “MADRS Total Score Mean Change from Baseline (SD)” value [4] was −10.2 (8.04), the “MADRS Total Score Mean Change to Placebo (SD pooled)” value [4] was −4.0 (7.87) and the “MADRS Total Score Effect size” value [5] was −0.51. The “MADRS Total Score Mean Change from Baseline (SD)” value [5] was −11.3 (8.69), the “MADRS Total Score Mean Change to Placebo (SD pooled)” value [5] was −4.6 (9.03) and the “MADRS Total Score Effect size” value [6] was −0.24. For the same compound, the “MADRS Total Score Mean Change from Baseline (SD)” value [6] was −2.4 (4.59), the “MADRS Total Score Mean Change to Placebo (SD pooled)” value [6] was −1.0 (4.39) and the “MADRS Total Score Effect size” value [7] was −0.08. The “MADRS Total Score Mean Change from Baseline (SD)” value [7] was −4.1 (6.67), the “MADRS Total Score Mean Change to Placebo (SD pooled)” value [7] was −0.5 (6.37) and the “MADRS Total Score Effect size” value [8] was −0.23. The “MADRS Total Score Mean Change from Baseline (SD)” value [8] was −6.4 (6.77), the “MADRS Total Score Mean Change to Placebo (SD pooled)” value [8] was −1.5 (6.65) and the “MADRS Total Score Effect size” value [9] was −0.10. The “MADRS Total Score Mean Change from Baseline (SD)” value [9] was −7.3 (6.90), the “MADRS Total Score Mean Change to Placebo (SD pooled)” value [9] was −0.7 (6.86) and the “MADRS Total Score Effect size” value [10] was −0.29. For the same compound, the “MADRS Total Score Mean Change from Baseline (SD)” value [10] was −8.8 (7.48), the “MADRS Total Score Mean Change to Placebo (SD pooled)” value [10] was −2.3 (7.80) and the “MADRS Total Score Change from Baseline Mean (SD)” value (from here on “MADRS Total Score Change … (SD)”) [11] was −3.1. The “MADRS Total Score Mean (SD)” value [11] was 21.7, the “MADRS Total Score Mean Change to Placebo (SD pooled)” value [11] was −1.3 (4.43) and the “MADRS Total Score Effect size” value (fITT, Treatment Week 1, vs placebo, negative favors aticaprant) was −0.29. For the same compound, the “MADRS Total Score Change … (SD)” value [12] was −5.1, the “MADRS Total Score Mean (SD)” value [12] was 20.0 and the “MADRS Total Score Mean Change to Placebo (SD pooled)” value [12] was −1.7 (6.62). The “MADRS Total Score Effect size” value (fITT, Treatment Week 3, vs placebo, negative favors aticaprant) was −0.26, the “MADRS Total Score Change … (SD)” value [13] was −7.2 and the “MADRS Total Score Mean (SD)” value [13] was 17.9. For the same compound, the “MADRS Total Score Mean Change to Placebo (SD pooled)” value [13] was −2.3 (7.02), the “MADRS Total Score Effect size” value (fITT, Treatment Week 4, vs placebo, negative favors aticaprant) was −0.32 and the “MADRS Total Score Change … (SD)” value [14] was −8.3. The “MADRS Total Score Mean (SD)” value [14] was 16.7, the “MADRS Total Score Mean Change to Placebo (SD pooled)” value [14] was −1.9 (7.31) and the “MADRS Total Score Effect size” value (fITT, Treatment Week 5, vs placebo, negative favors aticaprant) was −0.26. For the same compound, the “percentage of subjects with MADRS remission (MADRS total score ≤10)” value (fITT, Treatment Week 6) was 31.2%, the “percentage of subjects with ≥30% improvement in MADRS total score” value (fITT, Treatment Week 6) was 61.8% and the “percentage of subjects with ≥50% improvement in MADRS total score” value (fITT, Treatment Week 6) was 38.2%. For the same compound, the “MADRS Total Score Mean (SD)” value [15] was 15.9, the “MADRS Total Score Mean Change to Placebo (SD pooled)” value [15] was −3.0 (8.31) and the “MADRS total score change, difference between aticaprant and placebo” value [16] was −4.6. The “MADRS total score observed effect size” value [16] was 0.51, the “MADRS total score change, difference between aticaprant and placebo” value [17] was −2.3 and the “MADRS total score observed effect size” value [17] was 0.29. The “MADRS Total Score Effect size” value (fITT, Treatment Week 6, vs placebo, negative favors aticaprant) was 0.36, the “MADRS Total Score Effect size” value (fITT, Treatment Week 6, vs placebo, negative favors aticaprant, listed as Aticaprant) was −0.36 and the “onset of significant treatment effect favoring aticaprant (MADRS least squares mean change, FIG. 10-B)” value (fITT, vs placebo) was 3 week. For the same compound, the “MADRS LSMeans difference estimate, supplementary analysis of data collected prior to 15 Mar. 2020 (COVID-19)” value (fITT, vs placebo) was −3.4.
